Values joined by “and” are separate entries in the source; they are usually repeats but may differ in a detail not shown here. Equal entries are not always repeated. No end group written: not given here.
Experiments:
[1] = test system: HPV16 E7-specific T-helper clones; assay: HPV16 E7-specific Th-clones: proliferation and IFNγ production; assay type: cell-based, human; details: Th-clone from HLA-DR15, 4 and DQ6,7 positive PBMC raised against peptide E741-62
Protocol: Peptide-specific T-cell bulk cultures were generated as described previously (van der Burg et al., 1999) using either the E7 22-mer or E7 35-mer peptides. Specific proliferation was measured by incubation of 50,000 responders with an equal amount of irradiated (30Gy) APC (autologous PBMC unless indicated otherwise) and peptide or protein as indicated. E7-peptide and -protein-specific bulk T-cells were cloned by limiting dilution as described previously (van der Burg et al., 1999).
To determine specific excretion of cytokines, T-cell clones were stimulated by incubation of 50.000 T-cells with an equal amount of APC (30Gy) together with 10 μg/ml peptide, control peptide, E7 protein or control protein as indicated. After 24 hours of incubation, supernatant was harvested and replicate wells were pooled. Cytokine production was measured by Enzyme-Linked Immunosorbent Assay (ELISA) as described previously (van der Burg et al., 1999).

[2] = test system: E7 49-57-specific CD8+ T cells; assay: Vaccination, H-2Db E7 49-57 tetramer staining of spleen cultures; assay type: in vivo, C57BL/6 mice; details: B6 mice
Protocol: (§1) Immunization strategies. C57BL/6 mice were injected subcutaneously with either 50 μg E7^49-57 peptide or 150 μg E7^43-77 35-mer dissolved in PBS in order to achieve similar molar levels of the E7^49-57 CTL epitope in both cases. Combinations with various adjuvantia were tested. In the case of IFA and Montanide, the dissolved peptides were emulsified in 50% of these respective substances. ODN-CpG (50 μg/mouse), MPL (10 μg/mouse) and GM-CSF (4 μg/mouse) were all dissolved in PBS and mixed with the peptides before subcutaneous vaccination. The total injected volume was 200 μl/mouse.
T cell cultures. T cells were obtained from immunized mice by culturing spleen cells (5×10^6 cells/well of a 24-wells plate) in complete medium in the presence of 0.5×10^6 E7^49-57-expressing cells (tumor cell line 13.2) or, when indicated, in the presence of D1 cells.
Tetramer staining. Spleen cultures, stimulated with tumor cell line 13.2 for seven days, were transferred at an amount of 40×10^4 per well to 96-well V-bottom microtiter plates and washed twice with PBS/BSA 0.5%. Subsequently, PE-labelled E749-57-containing tetramer was added. After 30 minutes of incubation at room temperature, cells were washed twice with PBS/BSA 0.5% and incubated with FITC-labelled anti CD8b Ab for 30 minutes. Subsequently cells were washed twice in PBS/BSA 0.5%, suspended in PBS/BSA 0.5% containing Propidium Iodide (PI) (0.5) μg/ml) and transferred to tubes. Cell samples were analysed in a FACSCalibur flow cytometer (Becton Dickinson, San Jose, Calif., USA) using CellQuest software. A total of 20×10^4 events was analysed for fluorescence intensity. Debris was gated out using the PI staining and subsequently the CD8^+ fraction was gated. […] As a positive control the HPV16 E7 specific CTL clone 9.5 was used.

[3] = test system: E7 43-77-specific IFNγ-producing CD4+ T cells; assay: Vaccination, intracellular IFN-γ staining of CD4+ T cells; assay type: in vivo, C57BL/6 mice; details: B6 mice, vaccinated once, IFA
Protocol: as §1
Before use, the D1 cells were incubated for 16 hours with the E7^43-77 35-mer and subsequently activated by adding LPS (10 μg/ml) for 6 hours and then thoroughly washed. Complete medium consists of Iscove's Modified Dulbecco's Medium (IMDM; BioWhittaker, Walkersville, Md., USA) supplemented with 8% FCS, 100 IU/ml penicillin, 2 mM glutamine (ICN, Aurora, Ohio, USA) and 30 μM 2-ME (Merck, Darmstadt, Germany). Cultures were maintained at 37° C. in humidified air containing 5% CO2. No exogenous IL-2 was added. […]
Intracellular cytokine staining. […] Subsequently, the percentage of CD8^+ and CD4^+ IFN-γ producing T cells was measured as described before (van der Burg et al., 2001).

[4] = test system: E7 49-57-specific CD8+ T cells; assay: Vaccination, H-2Db E7 49-57 tetramer staining of spleen cultures; assay type: in vivo, C57BL/6 mice; details: MHC class II−/− mice
HLA-DR1 (DRB*0101) = target: T1, HLA-DR1 (DRB*0101) (Homo sapiens, UniProt P01903+P01911, A100R/D57E/F55L/F60I/F76Y/I96L/L162R/M171V/P40L/Q125E/R42F/V115G/Y59C); assay: biochemical; assay type: binding; details: read-out: Binding DR1, IC50
T1 construct: endogenous in cells; host or cells: LG2.1 B-lymphoblastic cell line, homozygous for HLA-DR

HLA-DR2 (DRB1*0201) = assay: HLA-DR-peptide binding assay; parameters: species or system human; details: HPV16-E7 22-mer peptides; >70 indicates undetectable binding; read-out: Binding DR2, IC50
HLA-DR3 (DRB*0301) = assay: HLA-DR-peptide binding assay; parameters: species or system human; details: HPV16-E7 22-mer peptides; >70 indicates undetectable binding; read-out: Binding DR3, IC50
HLA-DR4 (DRB*0401) = assay: HLA-DR-peptide binding assay; parameters: species or system human; details: HPV16-E7 22-mer peptides; >70 indicates undetectable binding; read-out: Binding DR4, IC50
[5] = test system: PBMC or cord blood cells (CBC); assay type: cell-based, human
HLA-DR7 (DRB1*0701) = HLA-DR7 (DRB1*0701) (Homo sapiens, UniProt P01903+P01911, A100R/A102G/A103Q/D57E/D86V/E43K/F76Y/K127E/L162R/M171V/P40G/Q125H/Q99D/R33Q/R42Y/R54Q/S133A/S66F/T210M/V115G/Y107V/Y59L/Y89S); details: read-out: Binding DR7, IC50

Sequence: GQAEPDRAHYNIVTFCCKCDSTLRLCVQSTHVDIR [E7 43-77]
- response of HLA-DR15 restricted Th-clone to pulsed APC [1]: specifically respond
- E7 49-57-specific CD8+ T cell response ([2]; prime-boost, IFA): vigorous
- mice with E7 49-57-specific CTL response ([2]; primed and boosted 50 days later, IFA): 9/11
- E7 49-57-specific CD8+ T cells, mean ([2]; primed and boosted, IFA): 19%
- E7 49-57-specific CD8+ T cells, range ([2]; primed and boosted, IFA): 5-40%
- E7 49-57-specific CTL response ([2]; vaccinated once, GM-CSF and IFA): moderate
- CD8+ T cells stained with tetramers ([2]; vaccinated once, IFA, responders): ~5%
- mice responding to the vaccine (tetramer staining) ([2]; vaccinated once, IFA, spleens day 10): 3 out of 9
- mice with E7 49-57-specific CTL responses ([2]; vaccinated once, MPL or ODN-CpG): in all mice
- level of the CTL response ([2]; vaccinated once, MPL or ODN-CpG, majority of animals): up to 40 % of CD8+ T cells
- E7 49-57-specific CTL response ([2]; vaccinated once, Montanide adjuvant): no responses were observed
- E7 49-57-specific CTL response ([2]; vaccinated once, combined with anti-CD40 antibody or GM-CSF): no or minimal CTL responses
- E7 43-77-specific IFNγ-producing CD4+ T cells [3]: ≥ 5%
- CTL responses ([4]; one vaccination, ODN-CpG): robust CTL responses
- number of E7 49-57-specific CTL ([4]; prime-boost, IFA): far lower than found in B6 mice after two vaccinations

Sequence: STHVDIRTLEDLLMGTLGIVCP [E7 71-92]
- IC50 (HLA-DR1 (DRB*0101)): 12 µM
- IC50 (HLA-DR2 (DRB1*0201)): 2 µM
- IC50 (HLA-DR3 (DRB*0301)): > 70 µM
- IC50 (HLA-DR4 (DRB*0401)): > 70 µM
- number of antigen-specific cells (IFNγ ELISPOT) [5]: 2 per 100,000 cord blood cells or PBMC and <1 per 100,000 cord blood cells or PBMC
- IC50 (HLA-DR7 (DRB1*0701)): > 70 µM

Source: US9650423B2, “Long peptides of 22-45 amino acid residues that induce and/or enhance antigen specific immune responses” (priority 2000, dated 2017)
